Type in all cases: cell-based
One series deals with Saccharomyces cerevisiae. Description: Saccharomyces cerevisiae toxicity assay. The following applies: 3 h incubation, colony count vs DMSO only control; highest concentration tested 11 µg/µL. The procedure:
These compounds were also assessed for mutagenicity and toxicity in Saccharomyces cerevisiae and the toxicity results are summarized in Table 1. No compound was mutagenic in this assay.
All compounds were tested for toxicity and mutagenicity using a Saccharomyces cerevisiae based assay as described previously. Toxicity was assessed in this assay (Table 1), comparing growth on plates to control treatments. Compounds were solubilized in DMSO at increasing concentrations and cells were incubated with the compounds for 3 h before plating on selective media or YPD to assess toxicity and mutagenicity. Cytotoxicity was assessed as described. Growth of colonies on the full nutrient YPD plate for each treatment was compared to the DMSO only control. The concentration at which 50% cell death (as indicated by colony count compared to DMSO only control) +/−10% cell death is reported as the 50% killing rate. The highest concentration tested was 11 µg/µL.

A further series has as its target T1, RXRA (Homo sapiens, UniProt P19793).
T1 construct: expressed in transfected cells; host or cells: 293T cells
T1 sequence (P19793 1-462): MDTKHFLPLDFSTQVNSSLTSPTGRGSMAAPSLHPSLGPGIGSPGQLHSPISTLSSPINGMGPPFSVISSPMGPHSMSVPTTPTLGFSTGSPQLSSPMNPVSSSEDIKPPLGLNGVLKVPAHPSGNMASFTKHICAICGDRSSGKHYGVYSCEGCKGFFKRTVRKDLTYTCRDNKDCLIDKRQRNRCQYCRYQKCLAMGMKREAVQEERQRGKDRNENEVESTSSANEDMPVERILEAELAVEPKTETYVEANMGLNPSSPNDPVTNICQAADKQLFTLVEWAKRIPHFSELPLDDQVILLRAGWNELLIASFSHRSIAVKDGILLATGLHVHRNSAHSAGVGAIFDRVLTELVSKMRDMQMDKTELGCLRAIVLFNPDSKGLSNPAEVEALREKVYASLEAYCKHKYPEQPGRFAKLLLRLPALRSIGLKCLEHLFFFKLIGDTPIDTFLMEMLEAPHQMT
Description: ApoA1-Luc luciferase assay in 293T cells with pBABE-RXRA. To be noted: pBABE-RXRA and ApoA1-Luc, nonconverged, read-out: EC50 (nM), luciferase (Figure 7C). How it is done:
293T cells were transfected using Lipofectamine 2000 (Invitrogen). Six hours after transfection, the cells were collected and plated into a 48-well plate in 1% BSA media in triplicate and treated with compounds. After 40 h incubation, the cells were harvested and assayed for luciferase (Luc Assay System with Reporter Lysis Buffer, Promega) in a Beckman Coulter LD400 plate reader.

The target of series [1] is T2, RXR-LXR heterodimer (LXR/LXRE) (Homo sapiens, UniProt P19793).
T2 construct: expressed in transfected cells; host or cells: HEK293 cells
T2 sequence (P19793 1-462): T1 sequence (P19793 1-462)
T2 sequence (Q13133 1-447 partner): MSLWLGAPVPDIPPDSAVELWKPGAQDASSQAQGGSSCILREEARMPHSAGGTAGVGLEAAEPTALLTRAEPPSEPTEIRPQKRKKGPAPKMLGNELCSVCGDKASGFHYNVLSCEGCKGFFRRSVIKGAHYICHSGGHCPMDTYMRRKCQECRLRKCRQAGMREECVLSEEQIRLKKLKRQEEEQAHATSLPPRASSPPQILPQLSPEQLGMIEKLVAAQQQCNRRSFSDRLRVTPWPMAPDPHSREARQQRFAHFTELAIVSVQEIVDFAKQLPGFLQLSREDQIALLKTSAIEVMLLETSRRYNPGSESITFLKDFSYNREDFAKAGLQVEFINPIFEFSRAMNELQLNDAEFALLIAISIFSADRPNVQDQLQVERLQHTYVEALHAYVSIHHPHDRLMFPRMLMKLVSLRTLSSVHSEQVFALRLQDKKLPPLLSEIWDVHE
The series can be described thus: LXRE-luciferase transactivation assay in HEK293 cells. To be noted: for LXRE Activity (% of Bex): 100 nM compound alone, HEK293, bexarotene (1) set to 100%; for LHS Score (vs. Bex): LXRE Heterodimer Specificity: LXRE:RXRE activity ratio, compound 1 set to 1.0. The procedure:
The activation from this natural LXRE in our system was tested in the presence of either 100 nM RXR agonists alone or in combination with 100 nM of both the RXR agonist and LXR agonist T0901317 (TO). […] The LXRE-mediated assays were performed using human embryonic cells (HEK293) seeded at a density of 60,000 cells/well in a 24-well plate and maintained in DMEM (Hyclone) supplemented with 10% fetal bovine serum, 100 µg/mL streptomycin, 100 U/mL penicillin (Invitrogen, Carlsbad, CA, USA) at 37 degrees Celsius, 5% CO2 for 24 h. The cells were co-transfected with 250 ng of an LXRE-luciferase reporter gene, 50 ng of pSG5-human RXRα, and 20 ng of renilla control plasmid. […] After 24 h post treatment, the cells were lysed and the transcriptional activity mediated by the LXRE was measured using the Dual Luciferase Assay System (Promega, Madison, WI) in a Sirius FB12 luminometer (Berthold Detection Systems, Pforzheim, Germany) according to the manufacturer’s protocol. The data are a compilation of between three and six independent assays with each treatment group dosed in triplicate for each independent assay. […] Bars on all graphs indicate standard deviation of the replicate experiments.
Cells were transfected for 24 h utilizing a liposome-mediated transfection protocol and then treated with the ethanol vehicle, or 100 nM of the indicated compound alone or in combination with 100 nM TO901317 (TO). […] (A) Human HEK-293 cells were transfected and treated as described in Figure 8.

Another series has as its target T3, RXRα (Homo sapiens, UniProt P19793).
T3 construct: expressed in transfected cells; host or cells: UAS-GFP x KMT2A-MLLT3 cells (retroviral transduction)
T3 sequence (P19793 227-458 limits assumed): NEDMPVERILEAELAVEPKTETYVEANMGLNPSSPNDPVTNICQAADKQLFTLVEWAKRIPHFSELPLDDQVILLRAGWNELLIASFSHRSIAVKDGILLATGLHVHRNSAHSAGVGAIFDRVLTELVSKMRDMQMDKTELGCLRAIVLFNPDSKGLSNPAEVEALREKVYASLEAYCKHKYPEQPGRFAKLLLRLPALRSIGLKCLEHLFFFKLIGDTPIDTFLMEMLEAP
The series can be described thus: UAS/Gal4 GFP reporter assay of RXRα activation in UAS-GFP x KMT2A-MLLT3 cells. The procedure: Cells were treated, and after 48 h, GFP measured by a ZE5 Flow Cytometer (Biorad).
(Reporter assays use an easily measured gene product as a stand-in for the process of interest.)

In another series the target is T4, human RARα (Homo sapiens, UniProt P10276).
T4 construct: expressed in transfected cells; host or cells: HEK293 cells
T4 sequence (P10276 1-462): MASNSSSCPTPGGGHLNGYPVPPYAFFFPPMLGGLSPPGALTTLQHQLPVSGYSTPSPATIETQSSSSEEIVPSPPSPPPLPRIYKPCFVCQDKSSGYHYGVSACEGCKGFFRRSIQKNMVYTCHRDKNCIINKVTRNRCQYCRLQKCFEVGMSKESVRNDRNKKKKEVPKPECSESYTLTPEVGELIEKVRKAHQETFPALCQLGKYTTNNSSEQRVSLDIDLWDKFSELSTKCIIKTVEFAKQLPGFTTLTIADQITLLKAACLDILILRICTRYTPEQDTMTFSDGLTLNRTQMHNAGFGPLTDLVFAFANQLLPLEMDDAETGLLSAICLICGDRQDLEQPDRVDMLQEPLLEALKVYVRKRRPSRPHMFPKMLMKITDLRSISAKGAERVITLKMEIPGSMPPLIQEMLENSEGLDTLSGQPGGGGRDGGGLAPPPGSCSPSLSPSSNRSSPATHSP
Description: RARE-luciferase reporter assay in HEK293 cells. To be noted: HEK293, all-trans-RA set to 100%. The procedure: Human embryonic kidney cells (HEK293) were plated at 60,000 cells per well in a 24-well plate and maintained as described above. After 24 h, the cells were transfected with 250 ng pTK-DR5(X2)-Luc, 25 ng pCMX-human RARα, and 20 ng renilla utilizing 1.25 µL polyethylenimine (PEI) per well for 24 h. The sequence of the double DR5 RARE is: 5′-[…]-3′ (DR5 responsive elements underlined). The cells were treated with ethanol vehicle (0.1%), all-trans-retinoic acid (RA, the ligand for RAR), or the indicated rexinoid at a final concentration of 10 nM. After 24 h of treatment, the retinoid activity was measured as described above (dual luciferase assay). […] Three independent assays were conducted with triplicate samples for each treatment group. The value for RA was set to 100%. […]

Setting [2] is: RXRα activation, value (SD), Table 1 does not say whether GFP or Luc assay, read-out: EC50 (nM) +/−(SD).

Where two headings read alike, the source gives them in different places.

For the molecule `CCN(c1ccc(C(=O)O)c(F)c1)c1ccc(OCC(C)C)c(C(C)C)c1` [Compound 29, 4-(ethyl(4-isobutoxy-3-isopropylphenyl)amino)-2-fluorobenzoic acid], the “Cyto-Toxicity (50% Cell Death)” value with Saccharomyces cerevisiae was 1 µg/µL. Also, the EC50 on RXRA and at RXRα (setting [2]) was above 1000 nM each time. The “LXRE Activity (% of Bex)” value in series [1] was 61.7 % of Bex. Also, at human RARα, the “RARE Activity (%RA at 10 nM)” value was 4.0 %RA.
Consider `CC(C)COc1ccc(-n2nnc3cc(C(=O)O)ccc32)cc1C(C)C` [Compound 31, 1-(4-isobutoxy-3-isopropylphenyl)-1H-benzo[d][1,2,3]triazole-5-carboxylic acid], for which the “Cyto-Toxicity (50% Cell Death)” value with Saccharomyces cerevisiae is recorded as “none”. The EC50 at RXRA and on RXRα (setting [2]) was above 1000 nM throughout. Further, the “LXRE Activity (% of Bex)” value in series [1] is given as 64.5 % of Bex. Besides, the “RARE Activity (%RA at 10 nM)” value at human RARα is on record as 3.1 %RA.
In the case of `C=C(c1ccc(C(=O)O)cc1)c1ccc2c(c1)C(C)(C)CCC2(C)C` [Compound 27, 4-(1-(5,5,8,8-tetramethyl-5,6,7,8-tetrahydronaphthalen-2-yl)vinyl)benzoic acid, reference compound], the “Cyto-Toxicity (50% Cell Death)” value with Saccharomyces cerevisiae is reported as 0.5 µg/µL. In series [1], the “LXRE Activity (% of Bex)” value is recorded as 82.4 % of Bex and the “LHS Score (vs. Bex)” value is given as 1.0. The molecule further came in with an EC50 on RXRα of 171 nM. On human RARα, the “RARE Activity (%RA at 10 nM)” value turned out to be 1.5 %RA.
As to `C=C(c1ccc(C(=O)O)cc1)c1cc2c(cc1C)C(C)(C)CC2(C)C` [Compound 26, reference compound], the “Cyto-Toxicity (50% Cell Death)” value with Saccharomyces cerevisiae is reported as “none”. For the same molecule, the “LXRE activity in combination with LXR ligand T0901317 (TO)” value in series [1] (100 nM compound + 100 nM T0901317, HEK293, compared with TO+1) is recorded as “higher activity than TO+1”. For the same molecule, in series [1], the “LXRE Activity (% of Bex)” value is reported as 94.5 % of Bex and the “LHS Score (vs. Bex)” value is given as 0.66. The EC50 on RXRα (setting [2]) was found to be 70.1 nM. Moreover, the “RARE Activity (%RA at 10 nM)” value at human RARα is 3.0 %RA.

Source of the values: publication PMC8624485, “Modeling, Synthesis, and Biological Evaluation of Potential Retinoid-X-Receptor (RXR) Selective Agonists: Analogs of 4-[1-(3,5,5,8,8-Pentamethyl-5,6,7,8-tetrahyro-2-naphthyl)ethynyl]benzoic Acid (Bexarotene) and 6-(Ethyl(4-isobutoxy-3-isopropylphenyl)amino)nicotinic Acid (NEt-4IB)” (International Journal of Molecular Sciences, 2021).
